Tests used:
[1] = C-13 NMR stability of the formaldehyde/sodium bisulfite/N,N-dimethylamine adduct in aqueous solution; assay type: physicochemical; conditions: room temperature; for Conversion of N,N-dimethyl adduct back to formaldehyde bisulfite adduct: 18 days
Experimental: In a small vial, 137 mg of formaldehyde sodium bisulfite (CAS 870-72-4) was combined with 10 mL of high purity water and 200 mg of N,N-dimethylamine and stirred at room temperature to mix. The resulting mixture was stored at room temperature.
Aliquots of the mixture was analysed by C-13 NMR spectral analysis 48 hours and 18 days following formation.

[2] = Stability of CropStar formulation and thiodicarb in presence of sodium bisulfite, Example 1; assay type: physicochemical
Experimental: Sodium bisulfite was added to CropStar® (150 g/L imidacloprid+450 g/L thiodicarb; Bayer CropScience) in various mole ratios to formaldehyde (0.5:1, 1:1, 2:1, and 5:1) with or without pH adjustment to pH 7. Efficacy of sodium bisulfite was compared to no safener (Sample Nos. 1 & 5), two comparative safeners (Safener 1 & Safener 2), and inoculum only (BIAGRO Liquido NG—liquid inoculant and BIAGRO 10 Plus—peat-based inoculant). Safener 1 was obtained from Novozymes and contains the following active ingredients: soybean oil (CAS #8001-22-7), hydrolysed starch syrups (CAS #8029-43-4), and yeast extract (CAS #8013-01-2). Safener 2 was provided by Biagro and contains the following active ingredients: yeast extract, K2HPO4, and milk powder.

| Structure (SMILES) | Conversion of N,N-dimethyl adduct back to formaldehyde bisulfite adduct [1] | Conversion of N,N-dimethyl adduct back to formaldehyde bisulfite adduct ([1]; listed as N,N-dimethylamine product) [%] | Time for which adduct is stable / takes to reverse back to formaldehyde bisulfite adduct [1] [days] | Degradation of thiodicarb ([2]; 1:1 mole ratio of sodium bisulfite to formaldehyde in CropStar) | Physical stability of the CropStar formulation ([2]; sodium bisulfite added to CropStar) |
| --- | --- | --- | --- | --- | --- |
| CN(C)CS(=O)(=O)O [N,N-dimethyl adduct (CAS 68507-34-6), 1-(dimethylamino)-methanesulfonic acid] | approximately 3.5% | 3.5 | > 18 |  |  |
| O=S([O-])O.[Na+] [sodium bisulfite] |  |  |  | did not significantly degrade thiodicarb | without affecting the physical stability of the formulation |
